Experimental data as given in ChEMBL document CHEMBL6087448, “Eradication of Therapy-Resistant Cancer Stem Cells by Novel Telmisartan Derivatives” (J Med Chem, 2025).
≈ marks a conversion by molar mass, not a printed value. One block for each compound: values may come before it. Calls of active or inactive are those of the source. No cut-off for these calls is given here.

Tests used:
[1] = tested on: A549; assay: Inhibition of side population phenotype in human A549 cells expressing ABCC1 at 10 uM incubated for 90 mins by DCV staining based flow cytometric analysis; type: functional, cell-based
[2] = tested on: Docetaxel-resistant DU145 cell; assay: Enhancement of docetaxel-induced anti-metabolic activity against human Docetaxel-resistant DU145 cell assessed as reduction in metabolic activity at 10 uM measured after 72 hrs by MTT assay; type: functional, cell-based
[3] = tested on: K-562R; assay: Restoration of imatinib accumulation in human K562-r cells at 10 uM preincubated with compound for 1 hrs followed by imatinib addition and measured after 2 hrs by UHPLC-SIM-MS analysis; type: functional, cell-based; conditions: time 3.0 hrs
[4] = Apparent permeability across basolateral to apical side in human Caco-2 cells at 10 uM by LC-MS/MS analysis
[5] = tested on: K562-r; assay: Inhibition of STAT5 phosphorylation in human K562-r cells at 4 uM measured after 72 hrs by Western blotting based immunoassay; type: cell-based
[6] = (§1) Inhibition of side population phenotype in human K562-r cells at 10 uM incubated for 90 mins by DCV staining based flow cytometric analysis relative to control; type: functional; conditions: K-562R
[7] = tested on: PBMC; assay: Effect on colony formation in human PBMC derived from healthy donors at 10 uM measured after 2 weeks by inverted microscopic analysis; type: functional, cell-based
[8] = tested on: PBMC; assay: Inhibition of colony formation in human PBMC derived from TKI naive CML patients assessed as reduction in number of colonies at 1 uM incubated for 14 days in presence of imatinib by inverted microscopic analysis; type: functional, cell-based; conditions: time 14.0 day
[9] = tested on: A2780/Taxol; assay: Effect on STAT5 protein expression in human Paclitaxel-resistant A2780 cells expressing ABCB1 at 10 uM incubated for 72 hrs by Western blotting based immunoassay; type: functional, cell-based
[10] = tested on: K-562R; assay: Effect on ABCB1 protein expression in human K562-r cells at 4 uM incubated for 72 hrs by Western blotting based immunoassay; type: functional, cell-based
[11] = tested on: PBMC; assay: Effect on colony formation in human PBMC derived from healthy donors at 10 uM measured after 2 weeks in presence of imatinib by inverted microscopic analysis; type: functional, cell-based
[12] = tested on: A549; assay: Inhibition of STAT5 phosphorylation in human A549 cells at 10 uM incubated for 72 hrs by Western blotting based immunoassay; type: cell-based
[13] = tested on: K-562R; assay: Cytotoxicity against human K562-r cells assessed as reduction in metabolic activity at 10 uM incubated for 72 hrs by MTT assay; type: functional, cell-based
[14] = tested on: A2780/Taxol; assay: Sensitization of paclitaxel-induced cytotoxicity against human Paclitaxel-resistant A2780 cells assessed as reduction in metabolic activity at 10 uM measured after 72 hrs by MTT assay; type: functional, cell-based
[15] = tested on: Paclitaxel-resistant IGROV-1 cell; assay: Inhibition of side population phenotype in human Paclitaxel-resistant IGROV-1 cells expressing ABCB1 at 10 uM incubated for 90 mins by DCV staining based flow cytometric analysis; type: functional
[16] = tested on: A2780/Taxol; assay: Inhibition of side population phenotype in human Paclitaxel-resistant A2780 cells expressing ABCB1 at 10 uM incubated for 90 mins by DCV staining based flow cytometric analysis; type: functional, cell-based
[17] = tested on: MCF7; assay: Inhibition of STAT5 phosphorylation in human MCF7 cells at 10 uM incubated for 72 hrs by Western blotting based immunoassay; type: cell-based
[18] = tested on: MCF7; assay: Effect on STAT5 protein expression in human MCF7 cells at 10 uM incubated for 72 hrs by Western blotting based immunoassay; type: functional, cell-based
[19] = tested on: Docetaxel-resistant PC-3 cell; assay: Enhancement of docetaxel-induced anti-metabolic activity against human Docetaxel-resistant PC-3 cell assessed as reduction in metabolic activity at 10 uM measured after 72 hrs by MTT assay; type: functional, cell-based
[20] = tested on: A549; assay: Effect on STAT5 protein expression in human A549 cells at 10 uM incubated for 72 hrs by Western blotting based immunoassay; type: functional, cell-based
[21] = tested on: Docetaxel-resistant DU145 cell; assay: Inhibition of side population phenotype in human Docetaxel-resistant DU145 cell expressing ABCB1 at 10 uM incubated for 90 mins by DCV staining based flow cytometric analysis; type: functional
[22] = tested on: Paclitaxel-resistant A2780; assay: Inhibition of STAT5 phosphorylation in human Paclitaxel-resistant A2780 cells expressing ABCB1 at 10 uM incubated for 72 hrs by Western blotting based immunoassay; type: cell-based
[23] = tested on: Docetaxel-resistant PC-3 cell; assay: Inhibition of side population phenotype in human Docetaxel-resistant PC-3 cell expressing ABCB1 at 10 uM incubated for 90 mins by DCV staining based flow cytometric analysis; type: functional
[24] = tested on: K-562R; assay: Inhibition of side population phenotype in human K562-r cells at 0.1 to 10 uM incubated for 90 mins by DCV staining based flow cytometric analysis; type: functional, cell-based; conditions: dose 0.1-10 µM
[25] = tested on: K562-r; assay: Inhibition of STAT5 phosphorylation in human K562-r cells at 4 uM measured after 6 hrs in presence of imatinib by Western blotting based immunoassay; type: cell-based
[26] = tested on: Paclitaxel-resistant IGROV-1 cell; assay: Enhancement of paclitaxel-induced anti-metabolic activity in human Paclitaxel-resistant IGROV-1 cells assessed as reduction in metabolic activity upto 300 nM measured after 72 hrs by MTT assay; type: functional, cell-based
[27] = tested on: K562-r; assay: Effect on STAT5 phosphorylation in human K562-r cells at 4 uM measured after 6 hrs by Western blotting based immunoassay; type: cell-based
[28] = tested on: MCF7; assay: Inhibition of side population phenotype in human MCF7 cells expressing ABCG2 at 10 uM incubated for 90 mins by DCV staining based flow cytometric analysis; type: functional, cell-based
[29] = tested on: Paclitaxel-resistant IGROV-1 cell; assay: Inhibition of STAT5 phosphorylation in human Paclitaxel-resistant IGROV-1 cells expressing ABCB1 at 10 uM incubated for 72 hrs by Western blotting based immunoassay
[30] = tested on: COS-7; assay: Cytotoxicity against African green monkey COS-7 cells assessed as reduction in metabolic activity at 10 uM incubated for 72 hrs by MTT assay; type: toxicity, cell-based; conditions: chlorocebus aethiops, cos-7, 72 h
[31] = Apparent permeability across apical to basolateral side in human Caco-2 cells at 10 uM by LC-MS/MS analysis
[32] = tested on: A2780/Taxol; assay: Cytotoxicity against human Paclitaxel-resistant A2780 cells assessed as metabolic activity at 10 nM measured after 72 hrs by MTT assay relative to control; type: functional
[33] = tested on: K-562R; assay: Antitumor activity against human K562-r cells xenografted in female NOD/SCID mouse model assessed as tumor growth inhibition at 50 mg/kg, po administered once daily for 30 days; type: functional, organism-based; conditions: time 30.0 day
[34] = Toxicity in female NOD/SCID mouse xenografted with human K562-r cells assessed as body weight loss at 50 mg/kg, po administered once daily for 30 days; type: organism-based; conditions: in vivo, 720 h, time 30 day
[35] = Cytotoxicity against human Docetaxel-resistant DU145 cell assessed as metabolic activity at 12.5 nM measured after 72 hrs by MTT assay relative to control; type: functional
[36] = Permeability of compound; type: ADME; conditions: not told; read-out: permeability
[37] = tested on: Paclitaxel-resistant IGROV-1 cell; assay: Downregulation of STAT5 protein expression in human Paclitaxel-resistant IGROV-1 cells expressing ABCB1 at 10 uM incubated for 72 hrs by Western blotting based immunoassay; type: functional
[38] = tested on: K-562R; assay: as §1; type: functional
[39] = tested on: K-562R; assay: Sensitization of imatinib-induced cytotoxicity against human K562-r cells assessed as reduction in metabolic activity at 0.5 to 10 uM measured after 72 hrs by MTT assay; type: functional, cell-based; conditions: dose 0.5-10 µM
[40] = Intrinsic clearance in rat hepatocytes measured per 10^6 cells; type: ADME, cell-based, Hepatocyte; conditions: read-out: CLH
[41] = tested on: K-562R; assay: Sensitization of imatinib-induced cytotoxicity against human K562-r cells assessed as cell viability at 10 uM measured after 72 hrs by MTT assay relative to control; type: functional; conditions: read-out: Activity
[42] = tested on: K-562R; assay: Enhancement of imatinib-induced anti-metabolic activity in human K562-r cells at 0.5 to 8 uM measured after 72 hrs by MTT assay relative to control; type: functional; conditions: dose 0.5-8 µM
[43] = Aqueous solubility of compound measured after 48 hrs by HPLC analysis; type: physicochemical; conditions: buffer
[44] = Toxicity in female NOD/SCID mouse xenografted with human K562-r cells assessed as body weight loss at 10 mg/kg, po co-administered with imatinib once daily for 30 days; type: organism-based; conditions: in vivo, 720 h, time 30 day
[45] = tested on: K-562R; assay: Antitumor activity against human K562-r cells xenografted in female NOD/SCID mouse model assessed as reduction in tumor volume at 10 mg/kg, po co-administered with imatinib once daily and measured after 15 to 26 days; type: functional, organism-based; conditions: time 15-26 day
[46] = tested on: K-562R; assay: Antitumor activity against human K562-r cells xenografted in female NOD/SCID mouse model assessed as tumor growth inhibition at 10 mg/kg, po co-administered with imatinib once daily for 30 days; type: functional, organism-based; conditions: time 30.0 day
[47] = tested on: K-562R; assay: Antitumor activity against human K562-r cells xenografted in female NOD/SCID mouse model assessed as tumor growth inhibition at 10 mg/kg, po administered once daily for 30 days; type: functional, organism-based; conditions: time 30.0 day
[48] = tested on: K-562R; assay: Antitumor activity against human K562-r cells xenografted in female NOD/SCID mouse model assessed as reduction in tumor volume by measuring treatment to control ratio at 10 mg/kg, po co-administered with imatinib once daily and measured after 33 days relative to control; type: functional; conditions: time 33 day
[49] = Toxicity in female NOD/SCID mouse xenografted with human K562-r cells assessed as body weight loss at 10 mg/kg, po administered once daily for 30 days; type: organism-based; conditions: in vivo, 720 h, time 30 day

Papp B→A at 10 µM [4]: 0.2 ×10⁻⁶ cm/s
Papp A→B at 10 µM [31]: 0.1 ×10⁻⁶ cm/s
Compound: CCCc1nc2c(C)cc(-c3nc4ccccc4n3C)cc2n1Cc1ccc(-c2ccccc2C(=O)OC)cc1
inhibition [1]: Active
Activity [2]: Active
Activity [3]: Active
inhibition [5]: Active; Lesser Effect Observed
inhibition at 10 µM [6]: 100%
Activity [7]: inactive
inhibition [8]: Active
Activity [9]: inactive
Activity [10]: inactive
Activity [11]: inactive
inhibition [12]: Active
Activity [13]: inactive
Activity [14]: Active
inhibition [15]: Active
inhibition [16]: Active
inhibition [17]: Active
Activity [18]: inactive
Activity [19]: Active; Marginal Activity Observed
Activity [20]: inactive
inhibition [21]: Active
inhibition [22]: Active
inhibition [23]: Active
inhibition [24]: Active; Similar To Valspodar
inhibition [25]: Active
Activity [26]: inactive
Activity [27]: inactive
inhibition [28]: Active
inhibition [29]: inactive
Activity [30]: Non-toxic

Compound: CC(=O)O[C@H]1C(=O)[C@@]2(C)[C@H]([C@H](OC(=O)c3ccccc3)[C@]3(O)C[C@H](OC(=O)[C@H](O)[C@@H](NC(=O)c4ccccc4)c4ccccc4)C(C)=C1C3(C)C)[C@]1(OC(C)=O)CO[C@@H]1C[C@@H]2O [PACLITAXEL]
Activity [32]: >80%

Compound: Cc1ccc(NC(=O)c2ccc(CN3CCN(C)CC3)cc2)cc1Nc1nccc(-c2cccnc2)n1 [IMATINIB]
Activity [33]: Active
Activity [34]: Non-toxic

Compound: CC(=O)O[C@@]12CO[C@@H]1C[C@H](O)[C@@]1(C)C(=O)[C@H](O)C3=C(C)[C@@H](OC(=O)[C@H](O)[C@@H](NC(=O)OC(C)(C)C)c4ccccc4)C[C@@](O)([C@@H](OC(=O)c4ccccc4)[C@H]21)C3(C)C [DOCETAXEL ANHYDROUS]
Activity [35]: >80%

Papp [36]: 29 ×10⁻⁶ cm/s
hepatocyte CLint [40]: 23 µL/min/1e6 cells
solubility at 48 h [43]: 19.2 µM (≈ 9.88 µg/mL)
Compound: CCCc1nc2c(C)cc(-c3nc4ccccc4n3C)cc2n1Cc1ccc(-c2ccccc2C(=O)O)cc1
inhibition [1]: Active
Activity [37]: Active
Activity [2]: inactive
inhibition [5]: Active; Lesser Effect Observed
inhibition [38]: inactive
Activity [7]: inactive
inhibition [8]: inactive
Activity [9]: inactive
Activity [10]: inactive
Activity [11]: inactive
inhibition [12]: Active
Activity [13]: inactive
Activity [39]: Active; Marginal Enhancement Of Imatinib Activity Observed
Activity [14]: Active
inhibition [15]: Active; Modest Effect Observed
inhibition [16]: Active; Modest Effect Observed
inhibition [17]: Active
viability at 10 µM [41]: 34%
Activity [18]: inactive
Activity [42]: <50%
Activity [19]: Active; Marginal Activity Observed
Activity [20]: inactive
inhibition [21]: Active; Modest Effect Observed
inhibition [22]: Active
inhibition [25]: Active
Activity [26]: Active
Activity [27]: inactive
inhibition [28]: Active
inhibition [29]: Active
Activity [30]: Non-toxic

Compound: CCCc1nc2c(C)cc(-c3nc4ccccc4n3C)cc2n1Cc1ccc(-c2ccccc2C(N)=O)cc1
inhibition [1]: Active
Activity [2]: Active
Activity [3]: Active
inhibition [5]: Active; Lesser Effect Observed
inhibition at 10 µM [6]: 100%
Activity [7]: inactive
inhibition [8]: Active
Activity [9]: inactive
Activity [10]: inactive
Activity [11]: inactive
inhibition [12]: Active
Activity [13]: inactive
Activity [14]: Active
inhibition [15]: Active
inhibition [16]: Active
inhibition [17]: Active
Activity [18]: inactive
Activity [19]: Active
Activity [20]: inactive
inhibition [21]: Active
inhibition [22]: Active
Activity [44]: Non-toxic
inhibition [23]: Active
inhibition [25]: Active
Activity [45]: Active
Activity [27]: inactive
inhibition [28]: Active
Activity [46]: Active; Strongest Inhibition Observed
inhibition [29]: Active
Activity [47]: Active
Activity [30]: Non-toxic
T/C [48]: 36%
Activity [49]: Non-toxic
